IC50, EC50 and AC50 data for ten compounds are collected here from ChEMBL document CHEMBL1201862, “PubChem BioAssay data set” (2004).

Calls of active or inactive are those of the source. For most assays here, no stated cut-off is given here; in the data, actives have a measured IC50 and inactives only a lower limit.

Data set [1] has as its target T1, Sentrin-specific protease 7 (Homo sapiens, UniProt Q9BQF6).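 Further: Luminescence-based dose-response confirmation of ultra-high-throughput screening hits, measuring inhibition of SENP7.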
T1 sequence (Q9BQF6 whole entry): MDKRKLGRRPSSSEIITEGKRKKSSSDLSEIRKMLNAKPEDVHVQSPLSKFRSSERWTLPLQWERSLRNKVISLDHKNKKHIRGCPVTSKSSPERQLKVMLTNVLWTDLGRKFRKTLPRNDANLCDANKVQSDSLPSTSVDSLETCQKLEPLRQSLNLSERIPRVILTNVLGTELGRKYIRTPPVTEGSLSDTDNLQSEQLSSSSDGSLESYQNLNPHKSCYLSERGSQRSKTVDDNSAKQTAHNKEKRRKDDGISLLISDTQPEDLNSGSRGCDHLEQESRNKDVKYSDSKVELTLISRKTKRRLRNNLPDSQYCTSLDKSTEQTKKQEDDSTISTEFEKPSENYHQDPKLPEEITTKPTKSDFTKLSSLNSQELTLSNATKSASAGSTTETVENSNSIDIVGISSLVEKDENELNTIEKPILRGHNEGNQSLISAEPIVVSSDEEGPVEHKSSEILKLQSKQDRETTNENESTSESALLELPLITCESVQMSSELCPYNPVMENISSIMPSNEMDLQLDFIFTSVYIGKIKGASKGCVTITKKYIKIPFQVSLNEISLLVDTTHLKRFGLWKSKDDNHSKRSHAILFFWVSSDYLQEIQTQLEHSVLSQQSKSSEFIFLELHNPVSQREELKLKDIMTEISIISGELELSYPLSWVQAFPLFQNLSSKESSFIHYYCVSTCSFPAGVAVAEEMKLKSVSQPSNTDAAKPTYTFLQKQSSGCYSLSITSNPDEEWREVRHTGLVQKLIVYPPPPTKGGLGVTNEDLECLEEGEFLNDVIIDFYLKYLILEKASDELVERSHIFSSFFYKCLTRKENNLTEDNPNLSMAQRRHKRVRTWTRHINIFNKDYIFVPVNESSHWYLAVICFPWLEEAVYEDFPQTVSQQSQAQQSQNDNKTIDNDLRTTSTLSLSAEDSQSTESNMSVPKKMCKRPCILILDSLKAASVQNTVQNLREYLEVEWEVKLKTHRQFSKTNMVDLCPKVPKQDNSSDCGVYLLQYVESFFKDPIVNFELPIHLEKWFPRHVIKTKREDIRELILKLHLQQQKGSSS
Type of data set: functional.

The target in the next data set is T2, Caspase-3 (Homo sapiens, UniProt P42574).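 Further: Dose-response selectivity test against caspase-3 for candidate inhibitors of sentrin-specific proteases (SENPs).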
T2 sequence (P42574 whole entry): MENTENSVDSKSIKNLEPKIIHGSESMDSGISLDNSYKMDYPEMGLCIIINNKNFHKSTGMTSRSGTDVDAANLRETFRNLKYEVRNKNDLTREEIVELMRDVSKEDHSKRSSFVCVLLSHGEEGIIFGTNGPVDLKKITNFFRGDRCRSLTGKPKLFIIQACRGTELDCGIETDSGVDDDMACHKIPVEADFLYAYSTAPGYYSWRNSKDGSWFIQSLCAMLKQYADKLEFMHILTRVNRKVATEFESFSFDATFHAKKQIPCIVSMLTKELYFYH
Type of data set: functional.

The target in data set [2] is T3, Sentrin-specific protease 6 (Homo sapiens, UniProt Q9GZR1).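 Further: Luminescence-based dose-response confirmatory assay of SENP6 inhibition, following up an ultra-high-throughput screen.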
T3 sequence (Q9GZR1 whole entry): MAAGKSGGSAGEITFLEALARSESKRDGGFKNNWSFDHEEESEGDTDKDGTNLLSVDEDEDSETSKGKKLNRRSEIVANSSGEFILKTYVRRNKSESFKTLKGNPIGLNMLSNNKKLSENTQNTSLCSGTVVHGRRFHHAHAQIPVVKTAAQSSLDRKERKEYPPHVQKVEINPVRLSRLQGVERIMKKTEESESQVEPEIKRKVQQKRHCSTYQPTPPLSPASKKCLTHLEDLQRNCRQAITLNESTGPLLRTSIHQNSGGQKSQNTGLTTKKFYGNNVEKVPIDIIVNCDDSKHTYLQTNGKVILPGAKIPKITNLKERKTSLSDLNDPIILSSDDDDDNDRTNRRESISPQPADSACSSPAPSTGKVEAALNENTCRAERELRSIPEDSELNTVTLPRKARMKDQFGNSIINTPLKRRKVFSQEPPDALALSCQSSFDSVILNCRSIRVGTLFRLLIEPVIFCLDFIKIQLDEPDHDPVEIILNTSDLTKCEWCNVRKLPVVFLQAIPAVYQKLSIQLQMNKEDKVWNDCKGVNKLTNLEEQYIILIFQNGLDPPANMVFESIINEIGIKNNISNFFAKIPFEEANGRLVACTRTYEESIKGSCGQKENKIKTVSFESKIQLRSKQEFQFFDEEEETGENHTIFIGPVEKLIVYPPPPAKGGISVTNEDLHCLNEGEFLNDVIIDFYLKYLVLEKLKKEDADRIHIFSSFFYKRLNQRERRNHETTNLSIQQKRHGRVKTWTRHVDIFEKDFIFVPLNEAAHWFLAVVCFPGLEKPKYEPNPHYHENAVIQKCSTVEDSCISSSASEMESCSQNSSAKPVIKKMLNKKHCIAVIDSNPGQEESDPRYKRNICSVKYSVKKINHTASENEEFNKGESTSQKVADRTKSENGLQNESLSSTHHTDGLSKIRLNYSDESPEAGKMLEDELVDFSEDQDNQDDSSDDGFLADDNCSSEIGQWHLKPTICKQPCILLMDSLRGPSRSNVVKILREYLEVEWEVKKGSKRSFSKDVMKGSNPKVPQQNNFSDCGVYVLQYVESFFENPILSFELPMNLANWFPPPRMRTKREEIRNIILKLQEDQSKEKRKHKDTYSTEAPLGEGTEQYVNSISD
The class given is functional.

Data set [3] has as its target T4, Sentrin-specific protease 8 (Homo sapiens, UniProt Q96LD8).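 Further: luminescence read-out of SENP8 inhibition, dose-response confirmation following an ultra-high-throughput screen.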
T4 sequence (Q96LD8 whole entry): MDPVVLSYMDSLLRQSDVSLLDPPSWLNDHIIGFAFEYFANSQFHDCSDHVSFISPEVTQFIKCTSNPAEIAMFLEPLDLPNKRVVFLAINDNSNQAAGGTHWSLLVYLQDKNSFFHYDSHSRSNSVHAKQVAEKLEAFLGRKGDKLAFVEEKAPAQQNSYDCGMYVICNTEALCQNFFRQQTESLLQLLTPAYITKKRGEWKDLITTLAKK
Type of data set: functional.

Data set [4] has as its target T5, Heat shock factor protein 1 (Mus musculus, UniProt P38532).
T5 sequence (P38532 whole entry): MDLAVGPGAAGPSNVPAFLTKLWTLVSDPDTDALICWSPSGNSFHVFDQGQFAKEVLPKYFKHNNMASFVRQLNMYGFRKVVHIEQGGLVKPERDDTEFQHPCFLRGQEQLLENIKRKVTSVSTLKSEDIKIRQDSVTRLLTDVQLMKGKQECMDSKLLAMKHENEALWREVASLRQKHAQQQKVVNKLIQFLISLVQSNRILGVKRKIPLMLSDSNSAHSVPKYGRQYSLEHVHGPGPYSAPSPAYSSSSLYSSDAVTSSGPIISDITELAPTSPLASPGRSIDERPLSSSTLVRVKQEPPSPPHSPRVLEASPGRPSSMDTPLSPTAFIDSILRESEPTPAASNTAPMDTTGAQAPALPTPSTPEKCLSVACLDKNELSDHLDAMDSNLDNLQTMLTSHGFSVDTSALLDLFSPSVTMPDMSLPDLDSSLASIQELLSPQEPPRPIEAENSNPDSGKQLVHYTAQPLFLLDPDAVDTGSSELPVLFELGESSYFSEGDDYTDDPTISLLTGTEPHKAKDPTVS
The data set is described as follows: enhancement of HSF1-driven luciferase signal – cell-based, NIH3T3, luminescence, dose retest, confirmation (AID 435004).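 Further: stress induced by proteasome inhibitor MG132 added 30 min after compound; luciferase reporter driven by HSF1 response element in NIH3T3 cells; actives raise luminescence as potentiators of the MG132 stress response.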 The class given is functional.

Data set [5] deals with T6, Corticotropin-releasing factor receptor 2/Corticotropin-releasing factor-binding protein (Homo sapiens, UniProt P24387+Q13324).
T6 sequence (Q13324 whole entry): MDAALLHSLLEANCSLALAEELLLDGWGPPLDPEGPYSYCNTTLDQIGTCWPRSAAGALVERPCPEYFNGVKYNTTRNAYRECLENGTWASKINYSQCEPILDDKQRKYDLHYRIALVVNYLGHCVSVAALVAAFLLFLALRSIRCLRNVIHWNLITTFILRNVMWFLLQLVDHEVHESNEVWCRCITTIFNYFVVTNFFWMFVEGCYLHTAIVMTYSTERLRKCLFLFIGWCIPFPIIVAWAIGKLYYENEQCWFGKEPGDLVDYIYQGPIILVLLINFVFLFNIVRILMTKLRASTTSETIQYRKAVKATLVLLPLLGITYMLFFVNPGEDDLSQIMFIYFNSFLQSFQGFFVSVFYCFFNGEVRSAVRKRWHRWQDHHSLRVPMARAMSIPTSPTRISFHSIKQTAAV
T6 sequence (P24387 whole entry): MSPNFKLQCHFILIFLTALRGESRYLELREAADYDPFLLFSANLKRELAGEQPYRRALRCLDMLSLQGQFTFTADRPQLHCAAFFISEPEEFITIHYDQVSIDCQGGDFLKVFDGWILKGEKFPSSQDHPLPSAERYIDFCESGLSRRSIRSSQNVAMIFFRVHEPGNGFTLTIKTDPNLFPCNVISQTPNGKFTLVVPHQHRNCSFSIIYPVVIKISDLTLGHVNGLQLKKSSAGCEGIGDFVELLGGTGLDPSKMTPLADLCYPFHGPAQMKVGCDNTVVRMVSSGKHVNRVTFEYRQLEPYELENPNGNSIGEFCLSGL
The data set is described as follows: activators of CRF receptor 2 with binding protein – uHTS hits, confirmation (AID 602473). The class given is functional. The settings on record: read-out: EC50_Mean.

In data set [6] the target is T6, Corticotropin-releasing factor receptor 2/Corticotropin-releasing factor-binding protein. The data set is described as follows: Dose Response confirmation of uHTS hits for small molecule antagonists of the CRF-binding protein and CRF-R2 receptor complex. The class given is functional. Particulars: read-out: IC50_Mean.
The target of the next data set is Cytochrome P450 2D6 (Homo sapiens, UniProt P10635).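 Further: CYP2D6 member of a cytochrome P450 panel assay.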
Chain of Cytochrome P450 2D6 (P10635 whole entry): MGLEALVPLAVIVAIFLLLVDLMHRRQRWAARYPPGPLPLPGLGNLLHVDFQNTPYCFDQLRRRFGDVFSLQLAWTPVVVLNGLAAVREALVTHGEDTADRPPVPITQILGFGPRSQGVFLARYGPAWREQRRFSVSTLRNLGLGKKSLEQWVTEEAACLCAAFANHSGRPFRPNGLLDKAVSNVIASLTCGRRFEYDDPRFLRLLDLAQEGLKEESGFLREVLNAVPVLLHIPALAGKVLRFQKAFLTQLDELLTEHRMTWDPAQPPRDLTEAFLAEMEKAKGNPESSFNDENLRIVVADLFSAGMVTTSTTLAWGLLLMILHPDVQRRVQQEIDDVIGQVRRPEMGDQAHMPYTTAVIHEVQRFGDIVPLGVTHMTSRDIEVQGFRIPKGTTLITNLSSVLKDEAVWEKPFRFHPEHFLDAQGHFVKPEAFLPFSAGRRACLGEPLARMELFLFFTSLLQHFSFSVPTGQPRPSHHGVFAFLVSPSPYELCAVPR
The target of another data set is Cytochrome P450 2C9 (Homo sapiens, UniProt P11712).
Chain of Cytochrome P450 2C9 (P11712 whole entry): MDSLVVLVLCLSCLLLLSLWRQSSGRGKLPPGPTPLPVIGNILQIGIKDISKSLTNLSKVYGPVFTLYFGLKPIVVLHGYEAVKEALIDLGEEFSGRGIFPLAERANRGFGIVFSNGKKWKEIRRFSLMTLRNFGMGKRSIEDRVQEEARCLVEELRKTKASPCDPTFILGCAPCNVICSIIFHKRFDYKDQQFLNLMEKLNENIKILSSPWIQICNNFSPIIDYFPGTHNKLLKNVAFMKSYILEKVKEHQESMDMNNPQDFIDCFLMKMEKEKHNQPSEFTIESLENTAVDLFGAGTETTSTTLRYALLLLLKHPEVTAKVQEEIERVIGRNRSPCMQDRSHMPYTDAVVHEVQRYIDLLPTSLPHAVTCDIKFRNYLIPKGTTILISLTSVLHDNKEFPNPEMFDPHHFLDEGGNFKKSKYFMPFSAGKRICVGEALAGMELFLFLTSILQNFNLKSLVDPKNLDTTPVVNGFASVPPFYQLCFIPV

For the compound `O=C(Nc1ccc(Cl)cn1)c1ccc(Oc2ccccc2)cc1`, the IC50 in data set [1] is 2.3 µM (active); at Caspase-3 it was 5.66 µM (active); in data set [2], 3.22 µM (active); in data set [3], 3.37 µM (active).

`COc1ccc(C(=O)O/N=C(\N)c2ccc(OC)c(OC)c2)cc1`: the IC50 in data set [1] was 8.96 µM (active); on Caspase-3 it was 13.3 µM (active); in data set [2], 11.5 µM (active); in data set [3] it was 11.5 µM (active).

As for `COc1ccc(/N=C(\C)C2=C(O)c3ccccc3C2=O)cc1`, the IC50 in data set [1] was 1.99 µM (active); at Caspase-3 it was 4.38 µM (active); in data set [2], 5.08 µM (active); in data set [3] it was 6.43 µM (active). Also, in data set [4], the EC50 was > 260 µM (inactive).

Regarding `O=C(Nc1cccs1)Nc1ccc(Br)cc1F`, the IC50 in [1] was 11.4 µM (active); at Caspase-3, 45.8 µM (active); in data set [2], 86.7 µM (active); in data set [3] it was > 100 µM (inactive).

On to `COc1ccc(-c2cc(-c3cc(C)ccc3O)n[nH]2)cc1`, for which the IC50 is 4.46 µM (active) in data set [1], 44.2 µM (active) on Caspase-3, 10.3 µM (active) in data set [2] and 9.6 µM (active) in data set [3].

As for `O=c1oc(-c2ccco2)nc2sc3c(c12)CCCC3`, the IC50 was 5.4 µM (active) in [1]; 41.7 µM (active) on Caspase-3; > 47.1 µM (inactive) in data set [6]; 35.1 µM (active) in [2]; > 100 µM (inactive) in data set [3]. Besides, in data set [5], the EC50 is > 53 µM (inactive).

Consider `CC(=O)c1c(C)oc2ccc(OCc3ccccc3)cc12`, for which the IC50 was 11.4 µM (active) in [1], 39 µM (active) at Caspase-3, 45.3 µM (active) in data set [2] and 75.8 µM (active) in data set [3].

Consider `COC(=O)c1sccc1NC(=O)Cc1ccc(Br)cc1`, for which the IC50 in [1] is 7.65 µM (active); on Caspase-3, 17.9 µM (active); in data set [2] it was 20.3 µM (active); in data set [3] it was 24.8 µM (active).

As for `O=C(O/N=C1\CCCc2ccccc21)c1ccc(F)cc1`, the IC50 was 2.15 µM (active) in data set [1], 2.23 µM (active) at Caspase-3, 2.34 µM (active) in data set [2] and 2.09 µM (active) in data set [3].

The term AC50 denotes the midpoint of the concentration-response curve, whichever way the signal moves. As to `Cc1cc(C)nc(NC(=O)/C=C/c2ccc(Cl)cc2Cl)c1`, the IC50 in [1] is 3.39 µM (active); on Caspase-3 it was 14.1 µM (active); in data set [2], 3.51 µM (active); in [3] it was 3.93 µM (active). In addition, the AC50 on Cytochrome P450 2D6 was 20 µM (inconclusive); on Cytochrome P450 2C9, “inconclusive”.
